Assays:
[1] = system: Bifidobacterium; experiment: Microbiome composition by shotgun sequencing: Bifidobacterium (first set); type: cell-based, human; conditions: after 24 h fermentation, vs corresponding control
[2] = system: Pepsin, pancreatin, viscozyme; experiment: In vitro enzymatic digestion with exogenous enzymes; type: biochemical
Procedure: Erlenmeyer flasks (100 mL total volume) contained 0.5 g of substrate alone or supplemented with the three eubiotics were incubated in duplicates for each treatment, to determine the in vitro enzymatic digestibility following the three-step method of Boisen and Fernandez (1997). The digestibility was determined with: • [1] Pepsin • [2] Pepsin+pancreatin • [3] Pepsin+pancreatin+viscozyme B. With Gastric Contents and Small Intestine Contents
For gas production, results were analyzed for each incubation time as a split-plot design, considering the donor pig as a block, the contents (fresh vs. frozen) as the main plot and the treatment as the subplot. The same design was used to analyze the results obtained from digestive contents (gastric vs. small intestine) as the main plot. In vitro enzymatic results were not statistically analyzed as there were no sources of experimental variability. Differences were considered significant when P<0.05, and a trend for significance was considered when 0.05 ? P<0.10 and, when significant, differences were compared by the Tukey t test at P<0.05.

[3] = Broiler feeding trial, cecal 1H-NMR metabolomic analysis; type: in vivo, chickens
Procedure: A total of 63 samples have been provided to the Bio-NMR Group of Department of Agricultural and Food Science and Interdepartmental Centre for Industrial Agri-Food Research (CIRI) of University of Bologna, Italy, including 21 cecal samples, collected from the first time point, 21 from the second time point and 21 from the third time were available.
Preliminary analysis were performed on 63 samples subdivided as follows: control samples (A) fed with 10 mg/kg of Vit. B2, treated samples (B) fed with 50 mg/kg of Vit. B2, treated samples (C) fed with 100 mg/kg of Vit. B2. Samples were prepared for nuclear magnetic resonance (NMR) analysis by vortex mixing for 5 minutes stool with 1 mL of deionized water, followed by centrifugation for 10 minutes at 14,000 rpm and 4° C. About […] of supernatant was added to 100 μL of a D2O 1.5 M phosphate buffer solution containing 0.1% TSP (3-(trimethylsilyl)propionic acid-d4), NaN3 2 mM, set at pH 7.40. Before analysis, samples were centrifuged for 10 minutes again and then 590 uL transferred into an NMR tube.
Proton NMR (^1H-NMR) spectra were recorded at 298 K with an AVANCE III spectrometer (Bruker, Milan, Italy) operating at a frequency of 600.13 MHz. The Hydrogen Deuterium Oxide (HOD) residual signal was suppressed by presaturation, whereas broad signals from slowly tumbling molecules were removed by including a Carr-Purcell-Meiboom-Gill filter27 to a free induction decay sequence. The filter was made up by a train of 400 echoes separated by 800 μs, for a total time of 328 ms. Each spectrum was acquired by summing up 256 transients using 32 K data points over a 7211.54-Hz spectrum (for an acquisition time of 2.27 seconds). The recycle delay was set to 8 seconds, keeping into consideration the longitudinal relaxation time of the protons under investigation. Each spectrum was processed with Top Spin 3.0 (Bruker) by using an automatic command apk0.noe, which performs in one shot the baseline and phase correction and by applying a line-broadening factor of 1 Hz. […]

[4] = system: caecum content metagenome; experiment: Broiler feeding trial, cecal metagenomic analysis (KEGG and SEED functional genes); type: in vivo, chickens; conditions: treated groups (B and C) vs control group (A)
Procedure: The DNA are being extracted from each sample of caecum content using a bead-beating procedure. Briefly, 0.25 g of cecal content are suspended in 1 ml lysis buffer (500 mM NaCl, 50 mM Tris-Cl, pH 8.0, 50 mM EDTA, 4% SDS) with MagNA Lyser Green Beads (Roche, Milan, Italy) and homogenized on the MagNA Lyser (Roche) for 25 sec at 6500 rpm. The samples are then heated at 70° C. for 15 min, followed by centrifugation to separate the DNA from the bacterial cellular debris. This process is repeated with a second 300 μl aliquot of lysis buffer. The samples are then subjected to 10 M v/v ammonium acetate (Sigma, Milan, Italy) precipitation, followed by isopropanol (Sigma) precipitation and a 70% ethanol (Carlo Erba, Milan, Italy) wash and re-suspended in 100 ul 1× Tris-EDTA (Sigma). The samples are then treated with DNase-free RNase (Roche) and incubated overnight at 4° C., before being processed through the QIAmp® DNA Stool Mini Kit (Qiagen, Milan, Italy) according to manufacturer's directions with some modifications. Samples are measured on a BioSpectrometer® (Eppendorf, Milan, Italy) to assess DNA quantity and quality. […]
Filtering and trimming of raw reads were performed using MGRast (MR) (mgrast.org) (Keegan et al., 2016) bioinformatics pipelines. […]

Vitamin E
Bifidobacterium relative abundance ([1]; 0.2× dose): increase Bifidobacterium relative abundance
Bifidobacterium relative abundance ([1]; 1× dose): increase Bifidobacterium relative abundance
Bifidobacterium relative abundance ([1]; 5× dose): increase Bifidobacterium relative abundance

Cc1cc2nc3c(=O)[nH]c(=O)nc-3n(C[C@H](O)[C@H](O)[C@H](O)CO)c2cc1C [Vitamin B2, riboflavin]
substrate digestibility incubated in (P+Pancreatin) and/or (P+P+Viscozyme) [2]: no differences among treatments were observed
substrate digestibility incubated in pepsin-HCl [2]: higher than that of other treatments
cecal propionate (1H-NMR integral area) ([3]; groups A, B, C, T0, T1, T2): A tendency to increase
cecal butyrate (1H-NMR integral area) ([3]; groups A, B, C, T0, T1, T2 (14, 28, 38/42 days)): not affected by both treatment and time
cecal uracil (1H-NMR integral area) ([3]; samples C (100 mg/kg Vit. B2) vs others): always higher than the others
PCA of functional features (6361 features, 63 samples) [4]: clear visible separation

Source: US12508280B2, “Formulations for improving gut health” (DSM IP ASSETS B.V., priority 2018, dated 2025)
